Read-outs that look alike come from different tables or passages of the source.
Biological target: rat MCH-1 (Rattus norvegicus, UniProt P97639)
Assay: Radioligand binding assay at cloned rat MCH1 receptor ([3H] Compound A)
Parameters: host or cells: Peak rapid 293 (Peakr293) cells, transient calcium phosphate transfection, membranes
Settings: cloned rat MCH1 receptor, 0.08 nM [3H] Compound A, read-out: Ki (nM) rMCH1

rat MCH-1, sequence (P97639 whole entry): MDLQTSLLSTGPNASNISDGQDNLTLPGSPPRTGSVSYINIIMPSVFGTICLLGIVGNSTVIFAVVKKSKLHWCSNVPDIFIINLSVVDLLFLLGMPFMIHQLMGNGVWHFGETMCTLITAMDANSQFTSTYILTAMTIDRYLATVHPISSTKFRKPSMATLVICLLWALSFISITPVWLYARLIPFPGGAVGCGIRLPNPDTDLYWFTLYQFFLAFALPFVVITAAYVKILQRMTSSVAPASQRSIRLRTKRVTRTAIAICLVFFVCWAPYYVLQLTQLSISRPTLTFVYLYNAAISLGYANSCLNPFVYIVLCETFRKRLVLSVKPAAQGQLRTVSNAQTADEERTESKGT

CCC(=O)Nc1cccc(C2CCN(CCCC(=O)c3ccc(OC)cc3)CC2)c1 [Example 531]
Ki (Peakr293 cell membranes): 105 nM

CC(C)C(=O)Nc1cccc(C2CCN(Cc3cccc4c3ccn4-c3cccc(Cl)c3Cl)CC2)c1 [Example 857]
Ki (Peakr293 cell membranes): 89.8 nM

CC(C)C(=O)Nc1cccc(C2CCN(CCCC(c3ccc(F)cc3)c3ccc(F)cc3)CC2)n1 [Example 265]
Ki (membranes from Peakr293 cells): 13.5 nM

CC(C)C(=O)Nc1cccc(C2CCN(CCCC(Oc3ccc(Cl)cc3)c3ccc(Cl)cc3)CC2)c1 (stereo not shown) [Example 385]
Ki (membranes from Peakr293 cells): 325 nM

COC(=O)c1ccc2c(CN3CCC(c4cccc(NC(=O)C(C)C)c4)CC3)cn(-c3ccccc3)c2c1 [Example 506, METHYL 3-({4-[3-(ISOBUTYRYLAMINO)PHENYL]-1-PIPERIDINYL}METHYL)-1-PHENYL-1H-INDOLE-6-CARBOXYLATE]
Ki (Peakr293 cell membranes): 2.5 nM

CC(C)C(=O)Nc1cccc(C2CCN(CCC(O)c3ccc4c(c3)CCC4)CC2)c1 (stereo not shown) [Example 163]
Ki (membranes from Peakr293 cells): 58.3 nM

CC(C)C(=O)Nc1cccc(C2CCN(Cc3cccc4c3ccn4-c3ccc(F)cc3F)CC2)c1 [Example 866]
Ki (Peakr293 cell membranes): 169 nM

CC(C)C(=O)Nc1cccc(C2CCN(C[C@H](C)COc3cccc(Cl)c3)CC2)c1 [Example 358]
Ki (membranes from Peakr293 cells): 136 nM

CC(C)C(=O)Nc1cccc(C2CCN(CCCNC(=O)Nc3ccc(Cl)c(Cl)c3)CC2)c1 [Example 614]
Ki (Peakr293 cell membranes): 84.8 nM

Cc1ccc2[nH]c(-c3ccccc3Br)c(CCCN3CCC(c4cccc(NC(=O)C(C)C)c4)CC3)c2c1 [Example 785]
Ki (Peakr293 cell membranes): 22.7 nM

CC(C)C(=O)Nc1cccc(C2CCN(CCCc3c(-c4ccc(I)cc4)[nH]c4ccccc34)CC2)c1 [Example 750]
Ki (Peakr293 cell membranes): 2.6 nM

CCn1c2ccccc2c2cc(CN3CCC(c4cccc(NC(=O)C5CC5)c4)CC3)ccc21 [Example 823]
Ki (Peakr293 cell membranes): 2.7 nM

CC(C)C(=O)Nc1cccc(C2CCN(Cc3ccc(-n4cncn4)cc3)CC2)c1 [Example 217]
Ki (membranes from Peakr293 cells): 300 nM

CC(C)C(=O)Nc1cccc(C2CCN(CCCCC(O)c3ccccc3F)CC2)c1 (stereo not shown) [Example 814]
Ki (Peakr293 cell membranes): 159 nM

COc1ccc(C(CCN2CCC(c3cccc(NC(=O)C(C)C)c3)CC2)Oc2cccc(C(C)=O)c2)cc1 (stereo not shown) [Example 179]
Ki (membranes from Peakr293 cells): 82.3 nM

COC(=O)c1sccc1S(=O)(=O)NCCCN1CCC(c2cccc(NC(=O)C(C)C)c2)CC1 [Example 603, METHYL 3-{[(3-{4-[3-(ISOBUTYRYLAMINO)PHENYL]-1-PIPERIDINYL}PROPYL)AMINO]SULFONYL}-2-THIOPHENECARBOXYLATE]
Ki (Peakr293 cell membranes): 287 nM

CC(C)C(=O)Nc1cccc(C2CCN(CCCc3c(-c4cccc(Br)c4)n(-c4ccccc4)c4ccccc34)CC2)c1 [Example 757]
Ki (Peakr293 cell membranes): 6.9 nM

CC(C)C(=O)Nc1cccc(C2CCN(CCCc3c(-c4ccccc4Cl)[nH]c4c3ccc3ccccc34)CC2)c1 [Example 732]
Ki (Peakr293 cell membranes): 5.8 nM

O=C(Nc1cccc(C2CCN(Cc3cn(-c4ccc(Cl)cc4)c4cc(Cl)ccc34)CC2)c1)C1CC1 [Example 476]
Ki (Peakr293 cell membranes): 12.7 nM

CC(C)C(=O)Nc1cccc(C2CCN(CCCc3c(-c4ccc(I)cc4)[nH]c4c3ccc3ccccc34)CC2)c1 [Example 749]
Ki (Peakr293 cell membranes): 23.2 nM

CC(C)C(=O)Nc1cccc(C2CCN(Cc3ccc(N4CCCCC4)c([N+](=O)[O-])c3)CC2)c1 [Example 214]
Ki (membranes from Peakr293 cells): 56.3 nM

CC(C)C(=O)Nc1cccc(C2CCN(CCCCCNC(=O)C(c3ccccc3)c3ccccc3)CC2)c1 [Example 654]
Ki (Peakr293 cell membranes): 43.6 nM

CC(C)C(=O)Nc1cccc(C2CCN(CCCc3c(-c4cccc(Br)c4)[nH]c4c3ccc3ccccc34)CC2)c1 [Example 755]
Ki (Peakr293 cell membranes): 23.8 nM

CC(C)C(=O)Nc1cccc(C2CCN(CC[C@H](NC(=O)c3cccc4ccccc34)c3ccccc3)CC2)c1 [Example 311]
Ki (membranes from Peakr293 cells): 43 nM

COC(=O)c1ccc(OC(CCN2CCC(c3cccc(NC(=O)C(C)C)c3)CC2)c2ccc(Br)cc2)cc1 (stereo not shown) [Example 148, METHYL 4-(1-(4-BROMOPHENYL)-3-{4-[3-(ISOBUTYRYLAMINO)PHENYL]-1-PIPERIDINYL}PROPOXY)BENZOATE]
Ki (membranes from Peakr293 cells): 24.7 nM

CC(C)C(=O)Nc1cccc(C2CCN(CCCCCCn3ccc4ccccc43)CC2)c1 [Example 96]
Ki (membranes from Peakr293 cells): 15.9 nM

Cc1ccc(OCCCN2CCC(c3cccc(NC(=O)C(C)C)c3)CC2)cc1C [Example 349]
Ki (membranes from Peakr293 cells): 20.4 nM

CC(C)C(=O)Nc1cccc(C2CCN(CCCCC(O)c3ccc(F)cc3)CC2)c1 (stereo not shown) [Example 811]
Ki (Peakr293 cell membranes): 191 nM

CCc1ccc(-c2cccc3c(CN4CCC(c5cccc(NC(=O)C(C)C)c5)CC4)c[nH]c23)cc1 [Example 518]
Ki (Peakr293 cell membranes): 226 nM

CCC(=O)Nc1cccc(C2CCN(Cc3c[nH]c4c([N+](=O)[O-])cccc34)CC2)c1 [Example 515]
Ki (Peakr293 cell membranes): 296 nM

CC(C)C(=O)Nc1cccc(C2CCN(Cc3ccc4c(ccn4-c4ccccc4[N+](=O)[O-])c3)CC2)c1 [Example 851]
Ki (Peakr293 cell membranes): 27.4 nM

Cc1onc(-c2c(F)cccc2Cl)c1C(=O)OC(CCCN1CCC(c2cccc(NC(=O)C(C)C)c2)CC1)c1ccccc1 (stereo not shown) [Example 295, 4-{4-[3-(ISOBUTYRYLAMINO)PHENYL]-1-PIPERIDINYL}-1-PHENYLBUTYL 3-(2-CHLORO-6-FLUOROPHENYL)-5-METHYL-4-ISOXAZOLECARBOXYLATE]
Ki (membranes from Peakr293 cells): 8.7 nM

Cc1ccc2[nH]c(-c3ccccc3)c(CCCCN3CCC(c4cccc(NC(=O)C(C)C)c4)CC3)c2c1 [Example 421]
Ki (Peakr293 cell membranes): 1.8 nM

Cc1cccc2c(CCCN3CCC(c4cccc(NC(=O)C(C)C)c4)CC3)c(-c3ccc(Br)cc3)[nH]c12 [Example 753]
Ki (Peakr293 cell membranes): 16.6 nM

COc1ccc(OC(CCCCCN2CCC(c3cccc(NC(=O)C(C)C)c3)CC2)c2ccc(F)cc2)cc1 (stereo not shown) [Example 907]
Ki (Peakr293 cell membranes): 3.1 nM

CC(C)C(=O)Nc1cccc(C2CCN(CCCCNC(=O)Nc3cc(Cl)cc(Cl)c3)CC2)c1 [Example 659]
Ki (Peakr293 cell membranes): 40.2 nM

CC(C)C(=O)Nc1cccc(C2CCN(CCc3cccc4ccccc34)CC2)c1 [Example 801]
Ki (Peakr293 cell membranes): 311 nM

Cc1onc(-c2ccccc2Cl)c1C(=O)NCCCCCN1CCC(c2cccc(NC(=O)C(C)C)c2)CC1 [Example 681]
Ki (Peakr293 cell membranes): 23.9 nM

Cc1onc(-c2c(F)cccc2Cl)c1C(=O)N[C@@H](CCN1CCC(c2cccc(NC(=O)C(C)C)c2)CC1)c1ccccc1 [Example 313]
Ki (membranes from Peakr293 cells): 249 nM

CC(C)C(=O)Nc1cccc(C2CCN(Cc3cccc(Oc4ccccc4)c3)CC2)c1 [Example 205]
Ki (membranes from Peakr293 cells): 28 nM

Cc1ccccc1NC(=S)NCCCN1CCC(c2cccc(NC(=O)C(C)C)c2)CC1 [Example 615]
Ki (Peakr293 cell membranes): 210 nM

CC(C)C(=O)Nc1cccc(C2CCN(Cc3ccc4c(c3)OCCCO4)CC2)c1 [Example 234]
Ki (membranes from Peakr293 cells): 116 nM

Cc1onc(-c2c(Cl)cccc2Cl)c1C(=O)O[C@@H](CCN1CCC(c2cccc(NC(=O)C(C)C)c2)CC1)c1ccccc1 [Example 290, (1S)-3-{4-[3-(ISOBUTYRYLAMINO)PHENYL]-1-PIPERIDINYL}-1-PHENYLPROPYL 3-(2,6-DICHLOROPHENYL)-5-METHYL-4-ISOXAZOLECARBOXYLATE]
Ki (membranes from Peakr293 cells): 51.9 nM

CCn1c2ccccc2c2cc(CN3CCC(c4ccccc4NC(=O)C(C)C)CC3)ccc21 [Example 274]
Ki (membranes from Peakr293 cells): 844 nM

COc1ccc(OC(CCN2CCC(c3cccc(NC(=O)C(C)C)c3)CC2)c2ccc(Br)cc2)cc1 (stereo not shown) [Example 170]
Ki (membranes from Peakr293 cells): 3 nM

CC(C)C(=O)Nc1cccc(C2CCN(Cc3cccc(Oc4cccc(C(F)(F)F)c4)c3)CC2)c1 [Example 209]
Ki (membranes from Peakr293 cells): 64.8 nM

CCOc1ccccc1OC(CCCCN1CCC(c2cccc(NC(=O)C(C)C)c2)CC1)c1ccccc1 (stereo not shown) [Example 939]
Ki (Peakr293 cell membranes): 62 nM

CC(C)C(=O)Nc1cccc(C2CCN(Cc3cn(-c4ccccc4)c4cc(Cl)ccc34)CC2)c1 [Example 503]
Ki (Peakr293 cell membranes): 6 nM

COc1ccc(C(=O)CCN2CCC(c3cccc(NC(=O)C(C)C)c3)CC2)cc1 [Example 119]
Ki (membranes from Peakr293 cells): 75.7 nM

CC(C)C(=O)Nc1cccc(C2CCN(CCCc3c(-c4ccc(Br)cc4)[nH]c4c3ccc3ccccc34)CC2)c1 [Example 752]
Ki (Peakr293 cell membranes): 21.7 nM

CC(C)C(=O)Nc1cccc(C2CCN(CCC(Oc3c(Cl)cccc3Cl)c3ccc(F)cc3)CC2)c1 (stereo not shown) [Example 141]
Ki (membranes from Peakr293 cells): 61 nM

Cc1ccc(Oc2ccc3[nH]cc(CN4CCC(c5cccc(NC(=O)C(C)C)c5)CC4)c3c2)cc1 [Example 527]
Ki (Peakr293 cell membranes): 226 nM

CC(C)(C)c1ccc(C(=O)CCCN2CCC(c3cccc(NC(=O)C4CC4)c3)CC2)cc1 [Example 541]
Ki (Peakr293 cell membranes): 319 nM

Cc1cccc2c(CN3CCC(c4cccc(NC(=O)C(C)C)c4)CC3)cn(-c3ccccc3)c12 [Example 509]
Ki (Peakr293 cell membranes): 24.3 nM

CC(C)C(=O)Nc1cccc(C2CCN(CCCCCN3C(=O)OCC3c3ccc(F)c(F)c3)CC2)c1 (stereo not shown) [Example 105]
Ki (membranes from Peakr293 cells): 4.6 nM

Cc1onc(-c2ccccc2Cl)c1C(=O)NCCCN1CCC(c2cccc(NC(=O)C(C)C)c2)CC1 [Example 331]
Ki (membranes from Peakr293 cells): 51.3 nM

CC(C)C(=O)Nc1cccc(C2CCN(CCCc3c(-c4ccc(C(F)(F)F)cc4)[nH]c4ccc(OC(F)(F)F)cc34)CC2)c1 [Example 683]
Ki (Peakr293 cell membranes): 54.2 nM

O=C(Nc1cccc(C2CCN(Cc3cn(-c4ccccc4F)c4cc(Cl)ccc34)CC2)c1)C1CC1 [Example 473]
Ki (Peakr293 cell membranes): 11.3 nM

Cc1ccc2[nH]c(-c3cccc(I)c3)c(CCCN3CCC(c4cccc(NC(=O)C(C)C)c4)CC3)c2c1 [Example 742]
Ki (Peakr293 cell membranes): 1.4 nM

CC(C)C(=O)Nc1cccc(C2CCN(CCC(Oc3ccc(F)cc3)c3ccc(Br)cc3)CC2)c1 (stereo not shown) [Example 160]
Ki (membranes from Peakr293 cells): 6.2 nM

CC(C)C(=O)Nc1cccc(C2CCN(CCC(Oc3ccc(Cl)c(Cl)c3)c3ccc(F)cc3)CC2)c1 (stereo not shown) [Example 136]
Ki (membranes from Peakr293 cells): 15.9 nM

CC(C)C(=O)Nc1cccc(C2CCN(Cc3ccc(-c4ccccn4)s3)CC2)c1 [Example 225]
Ki (membranes from Peakr293 cells): 214 nM

CCCc1c(C(=O)NCCCCCCN2CCC(c3cccc(NC(=O)C(C)C)c3)CC2)cnn1-c1ccccc1 [Example 633]
Ki (Peakr293 cell membranes): 108 nM

CC(C)C(=O)Nc1cccc(C2CCN(Cc3ccc4c(ccn4-c4ccccc4Cl)c3)CC2)c1 [Example 849]
Ki (Peakr293 cell membranes): 9.4 nM

CC(C)C(=O)Nc1cccc(C2CCN(Cc3cn(-c4ccccn4)c4ccccc34)CC2)c1 [Example 501]
Ki (Peakr293 cell membranes): 22.1 nM

CCn1c2ccccc2c2cc(CN3CCC(c4cc(NC(=O)C(C)C)ccc4C)CC3)ccc21 [Example 270]
Ki (membranes from Peakr293 cells): 3.4 nM

COc1ccc(OC(CCCCN2CCC(c3cccc(NC(=O)C(C)C)c3)CC2)c2ccccc2)cc1 (stereo not shown) [Example 928]
Ki (Peakr293 cell membranes): 14.9 nM
